In experiment [1] the test system is Giardia intestinalis Portland-1 (ATCC 30888). Briefly: Minimum inhibitory concentration determination, micro-broth dilution, trophozoite motility. The format is cell-based. The following applies: for Fold Difference (Parent vs. Derivative): MIC of derivative relative to metronidazole; for activity relative to parent metronidazole: qualitative statement on MIC results. How it is done: Briefly, minimum inhibitory concentration was evaluated in an anti-protozoal assay against a protozoan strain, Giardia intestinalis Portland-1 (ATCC 30888), isolated from human. The organism, also referred to as Giardia lamblia, causes infection in the small intestine.
The susceptibility of G. intestinalis to the test compounds was determined using the micro-broth dilution analysis. The protozoan strain was cultured according to the supplier's recommendations. Thirteen milliliters of growth media (TYI-S-33 supplemented with bile) was inoculated with 100 μL of G. intestinalis growing culture and incubated at 37° C. for 72 hours. Following incubation, each test compound was diluted (in growth medium) to two times the high test concentration then further diluted in 1:2 increments to yield 11 test concentrations. Each test concentration (100 μL) was added in triplicate to designated wells on the plate. Trophozoites were added to each well of a 96-well round bottom plate in a volume of 100 μL at a density of 40,000 per well. The plates were cultured for 24 hours in an anaerobic chamber to assure the presence of low oxygen level.
Following the treatment incubation, cultures were visually evaluated for trophozoite motility. At each concentration, data was recorded as positive or negative for motility.
Each test compound was dissolved in DMSO to a final concentration of 80 mM. […] The starting high test concentration was to be as high as possible.

Experiment [2] relates to Giardia intestinalis. Briefly: In vitro antigiardial activity assay. The format is cell-based. How it is done:
Metronidazole (from two different sources) and samples prepared in accordance with Examples 1 and 2 were tested using conventional antimicrobial assay techniques for in vitro antigiardial activity at six concentrations with three-fold dilutions (10, 3.3, 1.1, 0.37, 0.122, 0.04 μg/mL). IC50 values (inhibition concentration) were determined.

The mark [3] stands for this setting: lowest concentration completely inhibiting trophozoite motility, 24 hours, anaerobic chamber.
Where [4] appears, read: average IC50 converted with MW, read-out: μM IC50.
[5] abbreviates: replicate 1, six concentrations, three-fold dilutions 10-0.04 μg/mL.
The mark [6] stands for this setting: replicate 2, six concentrations, three-fold dilutions 10-0.04 μg/mL.
Setting [7] is: replicate 3, six concentrations, three-fold dilutions 10-0.04 μg/mL.

In brackets after ≈: the same amount, converted by molar mass. Read-outs that look alike come from different tables or passages of the source.

For `COCCOCCOCCOCCOCCOCCOCCOCCOCCOCCOCCOC(=O)OCCn1c([N+](=O)[O-])cnc1C` [mPEG11 metronidazole carbonate], in experiment [1], the “Fold Difference (Parent vs. Derivative)” value turned out to be 256 and the “activity relative to parent metronidazole” value is listed as “reductions of activity”. The compound further returned an MIC in experiment [1] (setting [3]) of 1000 µg/mL (≈ 1400 µM).
“mPEG21, metronidazole carbonate [mPEG21 metronidazole carbonate]”: in experiment [1], the “Fold Difference (Parent vs. Derivative)” value came out at 256 and the “activity relative to parent metronidazole” value is “reductions of activity”. In addition, in experiment [1] (setting [3]), the MIC was 1000 µg/mL.
For mPEG1k metronidazole carbonate, in experiment [1], the “Fold Difference (Parent vs. Derivative)” value was greater than 256 and the “activity relative to parent metronidazole” value is listed as “reductions of activity”. The compound also yielded an MIC in experiment [1] (setting [3]) greater than 1000 µg/mL.
For `COCCOCCOCCOCCOCCOCCOCCOC(=O)OCCn1c([N+](=O)[O-])cnc1C` [PEG7 Metronidazole carbonate, mPEG7 metronidazole carbonate], the IC50 in experiment [2] (setting [4]) is 7.51 µM. Also, the “Average IC50” value in experiment [2] (average of IC50 1-3) is 4.03 µg/mL. In addition, in experiment [2] (setting [5]), the “IC50 1” value came out at 4.5 µg/mL (≈ 8.37 µM). The “IC50 2” value in experiment [2] (setting [6]) came to 4.2 µg/mL (≈ 7.81 µM). Also, the “IC50 3” value in experiment [2] (setting [7]) was determined as 3.4 µg/mL (≈ 6.32 µM).
In the case of `COCCOCCOCCOC(=O)OCCn1c([N+](=O)[O-])cnc1C` [mPEG3 metronidazole carbonate], the IC50 in experiment [2] (setting [4]) came out at 2.88 µM. For the same compound, in experiment [2] (average of IC50 1-3), the “Average IC50” value stood at 1.04 µg/mL. Besides, in experiment [2] (setting [5]), the “IC50 1” value turned out to be 0.82 µg/mL (≈ 2.27 µM). In experiment [2] (setting [6]), the “IC50 2” value is 1.1 µg/mL (≈ 3.04 µM). Besides, the “IC50 3” value in experiment [2] (setting [7]) stood at 1.2 µg/mL (≈ 3.32 µM). The “MIC” value in experiment [1] (Giardia intestinalis) and in experiment [1] (setting [3]) was 7.8 µg/mL (≈ 21.6 µM) each time. Further, the “Fold Difference (Parent vs. Derivative)” value in experiment [1] is 2.
With `Cc1ncc([N+](=O)[O-])n1CCO` [Metronidazole, reference compound], the IC50 in experiment [2] (Giardia duodenalis, average IC50 converted with MW, read-out: μM IC50) was determined as 3.41 µM; in experiment [2] (Giardia duodenalis, average of IC50 1-3, read-out: Average IC50), 0.58 µg/mL; in experiment [2] (Giardia duodenalis, replicate 1, six concentrations, three-fold dilutions 10-0.04 μg/mL, read-out: IC50 1) it was 0.75 µg/mL; in experiment [2] (Giardia duodenalis, replicate 2, six concentrations, three-fold dilutions 10-0.04 μg/mL, read-out: IC50 2) it was 0.3 µg/mL; in experiment [2] (Giardia duodenalis, replicate 3, six concentrations, three-fold dilutions 10-0.04 μg/mL, read-out: IC50 3), 0.7 µg/mL; in experiment [2] (setting [4]), 3.96 µM. For the same compound, the “Average IC50” value in experiment [2] (average of IC50 1-3) stood at 0.68 µg/mL. Further, the MIC was 3.9 µg/mL (≈ 22.8 µM) in experiment [1] (Giardia duodenalis, ATCC30888, Giardia intestinalis, read-out: MIC) and 3.9 µg/mL (≈ 22.8 µM) in experiment [1] (Giardia duodenalis, ATCC30888, lowest concentration completely inhibiting trophozoite motility, 24 hours, anaerobic chamber, read-out: MIC). The “Fold Difference (Parent vs. Derivative)” value in experiment [1] worked out at 1.

These data come from US9233932B2, “Oligomer-nitroimidazole anti-infective conjugates” (NEKTAR THERAPEUTICS, priority 2007, dated 2016).
